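Exposure lasted 48 hours, with cells grown in 96-well plates and compounds tested at five concentrations. GI50: concentration for 50% inhibition of growth.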 Calls of active or inactive are those of the source. No stated cut-off is given here; in the data, active = GI50 up to about 1.1 µM and inactive = higher.
Experiments:
Assay in all cases: growth of human tumour cells (NCI), 48 h
SW-620 = system: SW-620
A549 = system: A549
K562 = system: K562
HOP-92 = system: HOP-92
HT-29 = system: HT-29
UACC-62 = system: UACC-62
SK-OV-3 = system: SK-OV-3
SF-268 = system: SF-268
UACC-257 = system: UACC-257
OVCAR-8 = system: OVCAR-8
HOP-62 = system: HOP-62
EKVX = system: EKVX
SK-MEL-28 = system: SK-MEL-28
M14 = system: M14
OVCAR-4 = system: OVCAR-4
RPMI-8226 = system: RPMI-8226
U-251 = system: U-251
A498 = system: A498

| Structure (SMILES) | GI50 (SW-620) | GI50 (A549) | GI50 (K562) | GI50 (HOP-92) | GI50 (HT-29) | GI50 (UACC-62) | GI50 (SK-OV-3) | GI50 (SF-268) | GI50 (UACC-257) | GI50 (OVCAR-8) | GI50 (HOP-62) | GI50 (EKVX) | GI50 (SK-MEL-28) | GI50 (M14) | GI50 (OVCAR-4) | GI50 (RPMI-8226) | GI50 (U-251) | GI50 (A498) |
| --- | --- | --- | --- | --- | --- | --- | --- | --- | --- | --- | --- | --- | --- | --- | --- | --- | --- | --- |
| CN(C)CC(/C(Cc1ccccc1)=N\NC(=O)c1ccncc1)c1ccccc1 (stereo not given) | 35.8 µM (inactive) | 30.3 µM (inactive) | 31.2 µM (inactive) | 19.2 µM (inactive) | 41 µM (inactive) | 31 µM (inactive) | 38 µM (inactive) | 33.4 µM (inactive) | 32.3 µM (inactive) | 32.8 µM (inactive) | 33.8 µM (inactive) | 23.6 µM (inactive) | 45.9 µM (inactive) | 25.5 µM (inactive) | 36.7 µM (inactive) | 16.4 µM (inactive) |  |  |
| CNc1nc(N)cc(O)n1 | > 100 µM (inactive) | > 100 µM (inactive) | > 100 µM (inactive) |  | > 100 µM (inactive) | > 100 µM (inactive) | > 100 µM (inactive) | > 100 µM (inactive) | > 100 µM (inactive) | > 100 µM (inactive) | > 100 µM (inactive) | > 100 µM (inactive) | > 100 µM (inactive) | > 100 µM (inactive) | > 100 µM (inactive) | > 100 µM (inactive) | > 100 µM (inactive) | > 100 µM (inactive) |
| CC(=O)OCC(=O)[C@@]1(O)CC[C@H]2[C@@H]3C[C@H](C)C4=CC(=O)C=C[C@]4(C)[C@@]3(F)[C@@H](O)C[C@@]21C | > 100 µM (inactive) | > 100 µM (inactive) | > 100 µM (inactive) | > 100 µM (inactive) | > 100 µM (inactive) | 80.4 µM (inactive) | 0.0131 µM (active) | > 100 µM (inactive) | > 100 µM (inactive) |  | > 100 µM (inactive) | > 100 µM (inactive) | > 100 µM (inactive) | > 100 µM (inactive) | > 100 µM (inactive) | 23.7 µM (inactive) | 60.4 µM (inactive) |  |
| Cc1ccc2nc(NC(=O)C(=O)C(C#N)c3ccc(Cl)cc3)sc2c1 (stereo not given) | > 50 µM (inactive) | > 50 µM (inactive) |  | > 50 µM (inactive) | > 50 µM (inactive) | > 50 µM (inactive) | > 50 µM (inactive) | > 50 µM (inactive) | > 50 µM (inactive) | > 50 µM (inactive) | > 50 µM (inactive) | > 50 µM (inactive) | > 50 µM (inactive) | > 50 µM (inactive) | > 50 µM (inactive) | > 50 µM (inactive) | > 50 µM (inactive) |  |
| O=C(CCc1ccccc1)On1nnc2ccccc2c1=O | > 100 µM (inactive) | > 100 µM (inactive) | > 100 µM (inactive) | > 100 µM (inactive) | > 100 µM (inactive) | > 100 µM (inactive) | > 100 µM (inactive) | > 100 µM (inactive) | > 100 µM (inactive) | > 100 µM (inactive) | > 100 µM (inactive) | > 100 µM (inactive) |  | > 100 µM (inactive) | > 100 µM (inactive) |  | > 100 µM (inactive) | 38.3 µM (inactive) |
| O=C(/C=C/c1ccccc1O)c1ccc([N+](=O)[O-])cc1 | 16.6 µM (inactive) | 22.5 µM (inactive) | 20.9 µM (inactive) | 26.6 µM (inactive) | 19.9 µM (inactive) | 14.7 µM (inactive) | 26.8 µM (inactive) | 18 µM (inactive) | 53.3 µM (inactive) | 15.5 µM (inactive) | 16.4 µM (inactive) | 10.6 µM (inactive) | 16.1 µM (inactive) | 20.9 µM (inactive) | 12 µM (inactive) |  | 14.6 µM (inactive) | 20.8 µM (inactive) |
| O=C1c2ccccc2C(=O)c2c1ccc(O)c2O [ATHRAQUINONES A] | 37.9 µM (inactive) | > 10 µM (inactive) | 36.1 µM (inactive) | 38.6 µM (inactive) | 36 µM (inactive) | 25.4 µM (inactive) |  | 32 µM (inactive) | 71.1 µM (inactive) | 31.3 µM (inactive) | > 100 µM (inactive) | 26.9 µM (inactive) | > 100 µM (inactive) | 77.6 µM (inactive) | 32.1 µM (inactive) | 36.5 µM (inactive) | 38.6 µM (inactive) | 39.5 µM (inactive) |
| O=C1C2c3[nH]c4ccccc4c3C3CCCC3C2C(=O)N1c1ccccc1 (stereo not given) | 74.1 µM (inactive) | > 100 µM (inactive) | > 100 µM (inactive) |  | > 100 µM (inactive) | > 100 µM (inactive) | > 100 µM (inactive) | > 100 µM (inactive) |  | 61.8 µM (inactive) |  | > 100 µM (inactive) | > 100 µM (inactive) | > 100 µM (inactive) | 17.1 µM (inactive) | > 100 µM (inactive) | > 100 µM (inactive) | > 100 µM (inactive) |

Reference: ChEMBL document CHEMBL1201862, “PubChem BioAssay data set” (2004)
